The NIST ThermoML archive (doi:10.1021/acs.jced.7b00564)

Experiment: xn = mol fraction of the nth substance listed
Conditions: Gas, isochoric method

C=C(F)C(F)(F)F [2,3,3,3-tetrafluoro-1-propene] + CC(C)C
Conditions | specific volume [m3/kg]
303.15 K, 163.5 kPa, x2 = 0.472 | 0.1698
303.15 K, 180.2 kPa, x2 = 0.606 | 0.1663
303.15 K, 246.7 kPa, x2 = 0.234 | 0.0939
303.15 K, 260.6 kPa, x2 = 0.772 | 0.1279
303.15 K, 269.3 kPa, x2 = 0.4 | 0.0942
308.15 K, 166.4 kPa, x2 = 0.472 | 0.1699
308.15 K, 183.3 kPa, x2 = 0.606 | 0.1664
308.15 K, 251.2 kPa, x2 = 0.234 | 0.094
308.15 K, 265.4 kPa, x2 = 0.772 | 0.1279
308.15 K, 274.3 kPa, x2 = 0.4 | 0.0942
308.15 K, 426.8 kPa, x2 = 0.85 | 0.0797
313.15 K, 169.2 kPa, x2 = 0.472 | 0.1699
313.15 K, 186.5 kPa, x2 = 0.606 | 0.1664
313.15 K, 255.6 kPa, x2 = 0.234 | 0.094
313.15 K, 270.2 kPa, x2 = 0.772 | 0.1279
313.15 K, 279.2 kPa, x2 = 0.4 | 0.0943
313.15 K, 435.6 kPa, x2 = 0.85 | 0.0797
318.15 K, 172.1 kPa, x2 = 0.472 | 0.17
318.15 K, 189.7 kPa, x2 = 0.606 | 0.1665
318.15 K, 260.1 kPa, x2 = 0.234 | 0.094
318.15 K, 275.1 kPa, x2 = 0.772 | 0.1279
318.15 K, 284.2 kPa, x2 = 0.4 | 0.0943
318.15 K, 444.2 kPa, x2 = 0.85 | 0.0797
323.15 K, 174.7 kPa, x2 = 0.472 | 0.17
323.15 K, 192.9 kPa, x2 = 0.606 | 0.1665
323.15 K, 264.6 kPa, x2 = 0.234 | 0.094
323.15 K, 279.9 kPa, x2 = 0.772 | 0.128
323.15 K, 289.2 kPa, x2 = 0.4 | 0.0943
323.15 K, 452.8 kPa, x2 = 0.85 | 0.0797
328.15 K, 177.5 kPa, x2 = 0.472 | 0.17
328.15 K, 196 kPa, x2 = 0.606 | 0.1665
328.15 K, 269 kPa, x2 = 0.234 | 0.094
328.15 K, 284.6 kPa, x2 = 0.772 | 0.128
328.15 K, 294.1 kPa, x2 = 0.4 | 0.0943
328.15 K, 461.2 kPa, x2 = 0.85 | 0.0797
333.15 K, 180.3 kPa, x2 = 0.472 | 0.1701
333.15 K, 199.2 kPa, x2 = 0.606 | 0.1666
333.15 K, 273.4 kPa, x2 = 0.234 | 0.0941
333.15 K, 289.4 kPa, x2 = 0.772 | 0.128
333.15 K, 299 kPa, x2 = 0.4 | 0.0944
333.15 K, 469.7 kPa, x2 = 0.85 | 0.0798
338.15 K, 183.1 kPa, x2 = 0.472 | 0.1701
338.15 K, 202.3 kPa, x2 = 0.606 | 0.1666
338.15 K, 277.8 kPa, x2 = 0.234 | 0.0941
338.15 K, 294.2 kPa, x2 = 0.772 | 0.1281
338.15 K, 303.9 kPa, x2 = 0.4 | 0.0944
338.15 K, 477.9 kPa, x2 = 0.85 | 0.0798
343.15 K, 185.9 kPa, x2 = 0.472 | 0.1701
343.15 K, 205.5 kPa, x2 = 0.606 | 0.1666
343.15 K, 282.2 kPa, x2 = 0.234 | 0.0941
343.15 K, 298.9 kPa, x2 = 0.772 | 0.1281
343.15 K, 308.8 kPa, x2 = 0.4 | 0.0944
343.15 K, 486.3 kPa, x2 = 0.85 | 0.0798
348.15 K, 188.7 kPa, x2 = 0.472 | 0.1702
348.15 K, 208.6 kPa, x2 = 0.606 | 0.1667
348.15 K, 286.6 kPa, x2 = 0.234 | 0.0941
348.15 K, 303.6 kPa, x2 = 0.772 | 0.1281
348.15 K, 313.5 kPa, x2 = 0.4 | 0.0944
348.15 K, 494.6 kPa, x2 = 0.85 | 0.0798
353.15 K, 191.5 kPa, x2 = 0.472 | 0.1702
353.15 K, 211.8 kPa, x2 = 0.606 | 0.1667
353.15 K, 291 kPa, x2 = 0.234 | 0.0941
353.15 K, 308.1 kPa, x2 = 0.772 | 0.1281
353.15 K, 318.3 kPa, x2 = 0.4 | 0.0944
353.15 K, 502.9 kPa, x2 = 0.85 | 0.0798
358.15 K, 194.3 kPa, x2 = 0.472 | 0.1703
358.15 K, 214.9 kPa, x2 = 0.606 | 0.1667
358.15 K, 295.4 kPa, x2 = 0.234 | 0.0942
358.15 K, 312.6 kPa, x2 = 0.772 | 0.1282
358.15 K, 323.2 kPa, x2 = 0.4 | 0.0945
358.15 K, 511.2 kPa, x2 = 0.85 | 0.0798
363.15 K, 197.1 kPa, x2 = 0.472 | 0.1703
363.15 K, 218 kPa, x2 = 0.606 | 0.1668
363.15 K, 299.8 kPa, x2 = 0.234 | 0.0942
363.15 K, 328.1 kPa, x2 = 0.4 | 0.0945
363.15 K, 519.5 kPa, x2 = 0.85 | 0.0799
368.15 K, 200.1 kPa, x2 = 0.472 | 0.1703
368.15 K, 221.1 kPa, x2 = 0.606 | 0.1668
368.15 K, 304.1 kPa, x2 = 0.234 | 0.0942
368.15 K, 332.9 kPa, x2 = 0.4 | 0.0945
368.15 K, 527.7 kPa, x2 = 0.85 | 0.0799
373.15 K, 202.9 kPa, x2 = 0.472 | 0.1704
373.15 K, 224.3 kPa, x2 = 0.606 | 0.1669
373.15 K, 308.5 kPa, x2 = 0.234 | 0.0942
373.15 K, 337.7 kPa, x2 = 0.4 | 0.0945
373.15 K, 535.9 kPa, x2 = 0.85 | 0.0799
378.15 K, 205.7 kPa, x2 = 0.472 | 0.1704
378.15 K, 227.5 kPa, x2 = 0.606 | 0.1669
378.15 K, 313 kPa, x2 = 0.234 | 0.0942
378.15 K, 342.6 kPa, x2 = 0.4 | 0.0945
378.15 K, 544.1 kPa, x2 = 0.85 | 0.0799
383.15 K, 208.5 kPa, x2 = 0.472 | 0.1704
383.15 K, 230.6 kPa, x2 = 0.606 | 0.1669
383.15 K, 317.4 kPa, x2 = 0.234 | 0.0943
383.15 K, 347.4 kPa, x2 = 0.4 | 0.0946
383.15 K, 552.4 kPa, x2 = 0.85 | 0.0799
